Key:
[1] = Metabolic stability in human liver microsomes assessed as half-life at 10 uM measured after 120 mins by LC-MS/MS analysis; format: ADME, Microsome
[2] = biological target: Glutamate receptor ionotropic, NMDA 2B (Homo sapiens, UniProt Q13224); assay: Displacement of [3H]ifenprodil from human GluN2B receptor extracted from mouse LTK- cell membrane assessed as inhibition constant by competitive binding assay; format: cell membranes
Albumin = Albumin (Homo sapiens, UniProt P02768); assay: Binding affinity to human serum albumin measured after 60 mins by high performance affinity chromatography based LC-MS analysis; details: 1 h
Chain of Albumin (P02768 whole entry): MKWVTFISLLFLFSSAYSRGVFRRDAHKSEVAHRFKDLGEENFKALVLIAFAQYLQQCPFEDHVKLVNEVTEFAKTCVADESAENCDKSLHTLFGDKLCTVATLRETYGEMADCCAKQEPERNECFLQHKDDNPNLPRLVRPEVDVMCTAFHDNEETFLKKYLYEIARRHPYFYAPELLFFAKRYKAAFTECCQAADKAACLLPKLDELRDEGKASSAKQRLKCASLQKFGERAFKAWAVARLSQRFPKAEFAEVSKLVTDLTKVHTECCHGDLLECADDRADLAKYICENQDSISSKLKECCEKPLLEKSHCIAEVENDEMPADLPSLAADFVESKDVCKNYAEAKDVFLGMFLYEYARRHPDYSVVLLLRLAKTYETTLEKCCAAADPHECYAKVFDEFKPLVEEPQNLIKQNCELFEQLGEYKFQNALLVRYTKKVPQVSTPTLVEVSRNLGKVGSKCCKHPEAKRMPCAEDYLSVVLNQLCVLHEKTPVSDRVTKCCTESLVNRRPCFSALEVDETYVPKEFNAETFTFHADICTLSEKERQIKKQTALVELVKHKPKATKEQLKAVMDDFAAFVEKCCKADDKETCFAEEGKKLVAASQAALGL

[3] = mouse, microsomes, 1.5 h
Description: Drug metabolism in mouse liver microsomes assessed as glucuronic acid conjugates formation measured after 90 mins in presence of UDP-GA by LC-MS analysis

physchem = details: n-octanol/3-morpholinopropanesulfonic acid (MOPS) buffer, pH 7.4
in vitro = details: mouse, liver microsomes
Description: Metabolic stability in mouse liver microsomes assessed as parent compound remaining measured after 90 mins in presence of NADPH by HPLC analysis

[4] = biological target: Sigma non-opioid intracellular receptor 1 (Cavia porcellus, UniProt Q60492); assay: Displacement of [3H](+)-pentazocine from sigma1 receptor in guniea pig brain membrane assessed as inhibition constant by competitive binding assay; format: cell membranes
Chain of Sigma non-opioid intracellular receptor 1 (Q60492 whole entry): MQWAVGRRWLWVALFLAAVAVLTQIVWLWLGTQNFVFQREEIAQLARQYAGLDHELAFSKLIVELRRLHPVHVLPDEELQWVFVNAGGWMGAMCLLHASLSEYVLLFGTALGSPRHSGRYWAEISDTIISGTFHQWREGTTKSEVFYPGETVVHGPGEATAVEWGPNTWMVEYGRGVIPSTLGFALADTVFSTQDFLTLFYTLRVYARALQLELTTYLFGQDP

[5] = biological target: T1, Sigma intracellular receptor 2 (Rattus norvegicus, UniProt Q5U3Y7); assay: Displacement of [3H](+)-pentazocine from sigma2 receptor in rat liver membrane assessed as inhibition constant by competitive binding assay; format: cell membranes
T1 sequence (Q5U3Y7 whole entry): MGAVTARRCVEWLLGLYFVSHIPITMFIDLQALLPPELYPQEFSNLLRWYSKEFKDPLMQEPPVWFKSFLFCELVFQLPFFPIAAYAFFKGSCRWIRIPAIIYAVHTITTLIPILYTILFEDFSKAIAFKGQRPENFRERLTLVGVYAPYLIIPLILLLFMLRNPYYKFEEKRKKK

Chain of Glutamate receptor ionotropic, NMDA 2B (Q13224 whole entry): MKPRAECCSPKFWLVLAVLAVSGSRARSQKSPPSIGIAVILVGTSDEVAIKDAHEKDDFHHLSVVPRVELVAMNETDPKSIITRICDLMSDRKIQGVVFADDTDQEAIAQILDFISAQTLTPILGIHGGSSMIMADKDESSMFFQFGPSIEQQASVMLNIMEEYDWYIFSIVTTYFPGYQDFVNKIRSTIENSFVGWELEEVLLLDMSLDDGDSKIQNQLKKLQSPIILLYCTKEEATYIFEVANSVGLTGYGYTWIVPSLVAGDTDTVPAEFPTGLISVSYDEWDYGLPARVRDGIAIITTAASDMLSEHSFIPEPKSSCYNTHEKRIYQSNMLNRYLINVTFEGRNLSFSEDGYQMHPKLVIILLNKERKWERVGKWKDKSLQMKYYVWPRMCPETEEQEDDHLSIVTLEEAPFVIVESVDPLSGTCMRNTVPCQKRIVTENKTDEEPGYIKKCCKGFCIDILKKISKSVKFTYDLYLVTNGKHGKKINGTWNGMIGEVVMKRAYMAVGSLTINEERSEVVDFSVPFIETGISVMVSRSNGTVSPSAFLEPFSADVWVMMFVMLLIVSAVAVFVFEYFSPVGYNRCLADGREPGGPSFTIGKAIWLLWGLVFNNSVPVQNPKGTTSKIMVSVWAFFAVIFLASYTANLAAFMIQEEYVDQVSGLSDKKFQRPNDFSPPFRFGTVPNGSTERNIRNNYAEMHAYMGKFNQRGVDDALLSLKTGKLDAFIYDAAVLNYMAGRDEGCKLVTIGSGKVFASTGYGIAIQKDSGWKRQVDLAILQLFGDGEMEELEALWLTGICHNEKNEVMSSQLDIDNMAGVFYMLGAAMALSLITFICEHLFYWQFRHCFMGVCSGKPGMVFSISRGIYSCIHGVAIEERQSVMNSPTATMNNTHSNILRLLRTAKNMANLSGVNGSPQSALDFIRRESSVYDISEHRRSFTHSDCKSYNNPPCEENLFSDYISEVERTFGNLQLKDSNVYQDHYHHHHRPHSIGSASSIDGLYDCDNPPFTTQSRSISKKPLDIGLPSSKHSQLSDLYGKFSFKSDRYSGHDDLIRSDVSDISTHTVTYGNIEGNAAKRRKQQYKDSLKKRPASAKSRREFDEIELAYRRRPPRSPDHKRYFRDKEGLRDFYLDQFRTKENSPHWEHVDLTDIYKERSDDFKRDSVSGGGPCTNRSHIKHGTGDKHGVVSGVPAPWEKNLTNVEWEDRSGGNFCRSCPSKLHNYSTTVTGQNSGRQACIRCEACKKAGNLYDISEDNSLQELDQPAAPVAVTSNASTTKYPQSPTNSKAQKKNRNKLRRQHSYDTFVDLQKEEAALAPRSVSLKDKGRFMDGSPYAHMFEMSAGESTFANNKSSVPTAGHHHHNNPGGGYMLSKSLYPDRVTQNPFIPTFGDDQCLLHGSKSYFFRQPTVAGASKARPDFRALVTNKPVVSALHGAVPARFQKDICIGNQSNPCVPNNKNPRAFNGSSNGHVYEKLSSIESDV

Structure (SMILES) | half-life at 10 µM [1] [min] | Ki [2] [nM] | Activity (Albumin) [%] | Drug metabolism [3] | logD (physchem) | remaining at 1.5 h (in vitro) [%] | Ki [4] [nM] | Ki [5] [nM]
C[C@@H](CN1CCC(Cc2ccccc2)CC1)[C@@H](O)c1ccc(O)cc1 | 23.7 | 135 | 82 | metabolite_detected | 1.9 | 5 |  | 
C[C@H]([C@H](O)c1ccc2[nH]ncc2c1)N1CCC(Cc2ccccc2)CC1 (stereo in doubt; 11c) |  |  | 90 |  |  |  | 672 | 112
C[C@@H](CN1CCC(Cc2ccccc2)CC1)[C@H](O)c1ccc2[nH]ncc2c1 (stereo in doubt; 10c) |  |  | 93 |  |  |  | 46 | 269
C[C@H]([C@@H](O)c1ccc2[nH]ncc2c1)N1CCC(Cc2ccccc2)CC1 |  |  | 92 |  |  |  | 313 | 263
C[C@H]([C@H](O)c1ccc2[nH]ncc2c1)N1CCC(Cc2ccccc2)CC1 (stereo in doubt; 11cd) |  |  |  |  |  |  | 34 | 19
C[C@H](CN1CCC(Cc2ccccc2)CC1)[C@@H](O)c1ccc2[nH]ncc2c1 |  |  | 93 |  |  |  | 43 | 42
C[C@@H](CN1CCC(Cc2ccccc2)CC1)[C@H](O)c1ccc2[nH]ncc2c1 (stereo in doubt; 10cd) |  |  |  |  |  |  | 44 | 57
C[C@@H](CN1CCC(Cc2ccccc2)CC1)[C@@H](O)c1ccc2[nH]ncc2c1 |  |  | 89 |  |  |  | 21 | 209
C[C@@H]([C@@H](O)c1ccc2[nH]ncc2c1)N1CCC(Cc2ccccc2)CC1 |  |  | 91 |  |  |  | 523 | 556
C[C@@H]([C@H](O)c1ccc2[nH]ncc2c1)N1CCC(Cc2ccccc2)CC1 (stereo in doubt; 11ab) |  |  |  |  |  |  | 38 | 245
C[C@@H]([C@H](O)c1ccc2[nH]ncc2c1)N1CCC(Cc2ccccc2)CC1 (stereo in doubt; 11a) |  |  | 92 |  |  |  | 96 | 33
CC(C(O)c1ccc(O)cc1)N1CCC(Cc2ccccc2)CC1 (configuration not stated) [IFENPRODIL] |  |  | 84 | metabolite_detected | 1.43 | 91.4 |  | 
C[C@H](CN1CCC(Cc2ccccc2)CC1)[C@H](O)c1ccc2[nH]ncc2c1 (stereo in doubt; 10a) |  |  | 89 |  |  |  | 24 | 111
C[C@H](CN1CCC(Cc2ccccc2)CC1)[C@H](O)c1ccc2[nH]ncc2c1 (stereo in doubt; 10ab) |  |  |  |  |  |  | 56 | 388

Source: ChEMBL document CHEMBL6092187, “Enantiomerically Pure Indazole Bioisosteres of Ifenprodil and Ro 25-6981 as Negative Allosteric Modulators of NMDA Receptors with the GluN2B Subunit” (J Med Chem, 2024)
